Measured values published in patent US20250262201A1, “COMPOUNDS AND METHODS USEFUL FOR STABILIZING PHENYLALANINE HYDROXYLASE MUTATIONS” (Agios Pharmaceuticals, Inc., priority 2022, published 2025).

target: T1, human PAH with the R408W mutation (Homo sapiens, UniProt P00439, R408W); experiment: Cell Based Phenylalanine Flux Assay; details: A375 cells expressing human R408W PAH; 24 hrs compound incubation; 13C-Tyrosine by LC-MS; average where tested multiple times; read-out: AC50
T1 construct: expressed in transfected cells
T1 sequence (P00439 1-452 R408W): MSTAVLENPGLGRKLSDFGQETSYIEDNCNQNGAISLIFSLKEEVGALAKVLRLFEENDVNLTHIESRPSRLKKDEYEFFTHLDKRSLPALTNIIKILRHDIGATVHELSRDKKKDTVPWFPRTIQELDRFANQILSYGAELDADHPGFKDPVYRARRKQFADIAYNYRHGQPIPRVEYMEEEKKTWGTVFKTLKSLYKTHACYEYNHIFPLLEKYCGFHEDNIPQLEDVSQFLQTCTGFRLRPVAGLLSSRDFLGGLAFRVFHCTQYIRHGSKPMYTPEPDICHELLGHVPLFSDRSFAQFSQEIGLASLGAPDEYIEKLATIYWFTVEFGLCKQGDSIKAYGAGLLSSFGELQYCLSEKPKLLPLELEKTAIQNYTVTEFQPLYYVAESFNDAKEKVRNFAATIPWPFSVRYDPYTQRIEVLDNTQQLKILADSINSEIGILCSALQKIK

Structure (SMILES) | AC50
Cc1nc([C@@H](C)O)oc1C(=O)N1CCc2[nH]cnc2C1c1ccc2ccccc2n1 (stereo in doubt) [Example 111, (2-((R)-1-hydroxyethyl)-4-methyloxazol-5-yl)((R)-4-(quinolin-2-yl)-6,7-dihydro-1H-imidazo[4,5-c]pyridin-5(4H)-yl)methanone] | 500 to 1000 nM
CC(C)(O)c1nc(Cl)c(C(=O)N2CCc3[nH]cnc3C2c2ccc3ccccc3n2)o1 (stereo in doubt) [Example 113, (R)-(4-chloro-2-(2-hydroxypropan-2-yl)oxazol-5-yl)(4-(quinolin-2-yl)-6,7-dihydro-1H-imidazo[4,5-c]pyridin-5(4H)-yl)methanone] | < 500 nM
CC(C)(O)c1nc(Cl)c(C(=O)N2CCc3[nH]cnc3C2c2ccc3ccccc3n2)o1 (stereo in doubt) [Example 114, (S)-(4-chloro-2-(2-hydroxypropan-2-yl)oxazol-5-yl)(4-(quinolin-2-yl)-6,7-dihydro-1H-imidazo[4,5-c]pyridin-5(4H)-yl)methanone] | > 5000 nM
O=C(c1nnc(-c2cc[nH]n2)o1)N1CCc2[nH]cnc2C1c1ccc2ccccc2n1 (stereo in doubt) [Example 115, (R)-(5-(1H-pyrazol-3-yl)-1,3,4-oxadiazol-2-yl)(4-(quinolin-2-yl)-6,7-dihydro-1H-imidazo[4,5-c]pyridin-5(4H)-yl)methanone] | < 500 nM
O=C(c1nnc(-c2cc[nH]n2)o1)N1CCc2[nH]cnc2C1c1ccc2ccccc2n1 (stereo in doubt) [Example 116, (S)-(5-(1H-pyrazol-3-yl)-1,3,4-oxadiazol-2-yl)(4-(quinolin-2-yl)-6,7-dihydro-1H-imidazo[4,5-c]pyridin-5(4H)-yl)methanone] | 1000 to 5000 nM
Cc1nc(C(C)(C)C#N)oc1C(=O)N1CCc2[nH]cnc2C1c1ccc2ccccc2n1 (stereo in doubt) [Example 117, (S)-2-methyl-2-(4-methyl-5-(4-(quinolin-2-yl)-4,5,6,7-tetrahydro-1H-imidazo[4,5-c]pyridine-5-carbonyl)oxazol-2-yl)propanenitrile] | 1000 to 5000 nM
Cc1nc(C(C)(C)C#N)oc1C(=O)N1CCc2[nH]cnc2C1c1ccc2ccccc2n1 (stereo in doubt) [Example 118, (R)-2-methyl-2-(4-methyl-5-(4-(quinolin-2-yl)-4,5,6,7-tetrahydro-1H-imidazo[4,5-c]pyridine-5-carbonyl)oxazol-2-yl)propanenitrile] | < 500 nM
C[C@@H](O)c1nc(C(F)F)c(C(=O)N2CCc3[nH]cnc3C2c2ccc3ccccc3n2)o1 (stereo in doubt) [Example 119, (4-(difluoromethyl)-2-((R)-1-hydroxyethyl)oxazol-5-yl)((S)-4-(quinolin-2-yl)-6,7-dihydro-1H-imidazo[4,5-c]pyridin-5(4H)-yl)methanone] | 1000 to 5000 nM
C[C@@H](O)c1nc(C(F)F)c(C(=O)N2CCc3[nH]cnc3C2c2ccc3ccccc3n2)o1 (stereo in doubt) [Example 120, (4-(difluoromethyl)-2-((R)-1-hydroxyethyl)oxazol-5-yl)((R)-4-(quinolin-2-yl)-6,7-dihydro-1H-imidazo[4,5-c]pyridin-5(4H)-yl)methanone] | < 500 nM
C[C@H](O)c1nc(C(F)F)c(C(=O)N2CCc3[nH]cnc3C2c2ccc3ccccc3n2)o1 (stereo in doubt) [Example 121, (4-(difluoromethyl)-2-((S)-1-hydroxyethyl)oxazol-5-yl)((S)-4-(quinolin-2-yl)-6,7-dihydro-1H-imidazo[4,5-c]pyridin-5(4H)-yl)methanone] | 1000 to 5000 nM
C[C@H](O)c1nc(C(F)F)c(C(=O)N2CCc3[nH]cnc3C2c2ccc3ccccc3n2)o1 (stereo in doubt) [Example 122, (4-(difluoromethyl)-2-((S)-1-hydroxyethyl)oxazol-5-yl)((R)-4-(quinolin-2-yl)-6,7-dihydro-1H-imidazo[4,5-c]pyridin-5(4H)-yl)methanone] | < 500 nM
O=C(c1cn[nH]c1Cl)N1CCc2[nH]cnc2C1c1ccc2ccccc2n1 (stereo in doubt) [Example 123, (S)-(5-chloro-1H-pyrazol-4-yl)(4-(quinolin-2-yl)-6,7-dihydro-1H-imidazo[4,5-c]pyridin-5(4H)-yl)methanone] | 1000 to 5000 nM
O=C(c1cn[nH]c1Cl)N1CCc2[nH]cnc2C1c1ccc2ccccc2n1 (stereo in doubt) [Example 124, (R)-(5-chloro-1H-pyrazol-4-yl)(4-(quinolin-2-yl)-6,7-dihydro-1H-imidazo[4,5-c]pyridin-5(4H)-yl)methanone] | 500 to 1000 nM
O=C(c1cnn(CC(F)(F)F)c1C(F)F)N1CCc2[nH]cnc2C1c1ccc2ccccc2n1 (stereo in doubt) [Example 125, (R)-(5-(difluoromethyl)-1-(2,2,2-trifluoroethyl)-1H-pyrazol-4-yl)(4-(quinolin-2-yl)-6,7-dihydro-1H-imidazo[4,5-c]pyridin-5(4H)-yl)methanone] | 1000 to 5000 nM
O=C(c1cnn(CC(F)(F)F)c1C(F)F)N1CCc2[nH]cnc2C1c1ccc2ccccc2n1 (stereo in doubt) [Example 126, (S)-(5-(difluoromethyl)-1-(2,2,2-trifluoroethyl)-1H-pyrazol-4-yl)(4-(quinolin-2-yl)-6,7-dihydro-1H-imidazo[4,5-c]pyridin-5(4H)-yl)methanone] | > 5000 nM
CC(C)(C#N)c1nc(C(F)F)c(C(=O)N2CCc3[nH]cnc3C2c2ccc3ccccc3n2)o1 (stereo in doubt) [Example 127, (S)-2-(4-(difluoromethyl)-5-(4-(quinolin-2-yl)-4,5,6,7-tetrahydro-1H-imidazo[4,5-c]pyridine-5-carbonyl)oxazol-2-yl)-2-methylpropanenitrile] | 1000 to 5000 nM
CC(C)(C#N)c1nc(C(F)F)c(C(=O)N2CCc3[nH]cnc3C2c2ccc3ccccc3n2)o1 (stereo in doubt) [Example 128, (R)-2-(4-(difluoromethyl)-5-(4-(quinolin-2-yl)-4,5,6,7-tetrahydro-1H-imidazo[4,5-c]pyridine-5-carbonyl)oxazol-2-yl)-2-methylpropanenitrile] | < 500 nM
O=C(c1oc(C2(O)CC2)nc1C(F)F)N1CCc2[nH]cnc2C1c1ccc2ccccc2n1 (stereo in doubt) [Example 129, (S)-(4-(difluoromethyl)-2-(1-hydroxycyclopropyl)oxazol-5-yl)(4-(quinolin-2-yl)-6,7-dihydro-1H-imidazo[4,5-c]pyridin-5(4H)-yl)methanone] | 1000 to 5000 nM
O=C(c1oc(C2(O)CC2)nc1C(F)F)N1CCc2[nH]cnc2C1c1ccc2ccccc2n1 (stereo in doubt) [Example 130, (R)-(4-(difluoromethyl)-2-(1-hydroxycyclopropyl)oxazol-5-yl)(4-(quinolin-2-yl)-6,7-dihydro-1H-imidazo[4,5-c]pyridin-5(4H)-yl)methanone] | < 500 nM
CC(C)(C)c1ncc(C(=O)N2CCc3[nH]cnc3C2c2ccc3ccccc3n2)o1 (stereo in doubt) [Example 258, (R)-(2-(tert-butyl)oxazol-5-yl)(4-(quinolin-2-yl)-6,7-dihydro-1H-imidazo[4,5-c]pyridin-5(4H)-yl)methanone] | < 500 nM
O=C(c1cn[nH]c1C(F)F)N1CCc2[nH]cnc2C1c1ccc2ccccc2n1 (stereo in doubt) [Example 259, (R)-(5-(difluoromethyl)-1H-pyrazol-4-yl)(4-(quinolin-2-yl)-6,7-dihydro-1H-imidazo[4,5-c]pyridin-5(4H)-yl)methanone] | < 500 nM
O=C(c1ccnn1-c1ccccn1)N1CCc2[nH]cnc2C1c1ccc2ccccc2n1 (stereo in doubt) [Example 261, (R)-(1-(pyridin-2-yl)-1H-pyrazol-5-yl)(4-(quinolin-2-yl)-6,7-dihydro-1H-imidazo[4,5-c]pyridin-5(4H)-yl)methanone] | < 500 nM
Cn1nc(Cl)cc1C(=O)N1CCc2[nH]cnc2C1c1ccc2ccccc2n1 (stereo in doubt) [Example 263, (R)-(3-chloro-1-methyl-1H-pyrazol-5-yl)(4-(quinolin-2-yl)-6,7-dihydro-1H-imidazo[4,5-c]pyridin-5(4H)-yl)methanone] | < 500 nM
Cn1nc(Cl)nc1C(=O)N1CCc2[nH]cnc2C1c1ccc2ccccc2n1 (stereo in doubt) [Example 265, (R)-(3-chloro-1-methyl-1H-1,2,4-triazol-5-yl)(4-(quinolin-2-yl)-6,7-dihydro-1H-imidazo[4,5-c]pyridin-5(4H)-yl)methanone] | 500 to 1000 nM
Nc1cc(C(=O)N2CCc3[nH]cnc3C2c2ccc3ccccc3n2)n(C(F)F)n1 (stereo in doubt) [Example 267, (R)-(3-amino-1-(difluoromethyl)-1H-pyrazol-5-yl)(4-(quinolin-2-yl)-6,7-dihydro-1H-imidazo[4,5-c]pyridin-5(4H)-yl)methanone] | 500 to 1000 nM
CCn1cnnc1C(=O)N1CCc2[nH]cnc2C1c1ccc2ccccc2n1 (stereo in doubt) [Example 270, (R)-(4-ethyl-4H-1,2,4-triazol-3-yl)(4-(quinolin-2-yl)-6,7-dihydro-1H-imidazo[4,5-c]pyridin-5(4H)-yl)methanone] | 500 to 1000 nM
O=C(CCc1nccs1)N1CCc2[nH]cnc2C1c1ccc2ccccc2n1 (stereo in doubt) [Example 271, (R)-1-(4-(quinolin-2-yl)-6,7-dihydro-1H-imidazo[4,5-c]pyridin-5(4H)-yl)-3-(thiazol-2-yl)propan-1-one] | 500 to 1000 nM
